From patent US10570129B2 (Zoetis Services LLC, priority 2015, dated 2020) come the findings set out here.

Test [1] has as its system Haemonchus contortus L3. Nature of the test: microbe, parasite or virus in culture. The conditions noted are these: Haemonchus contortus, 96 h, read-out: HcL3 Minimal Effective Concentration (MEC). The class given is cell-based.
For test [2], the system named is D. immitis microfilariae. Nature of the test: Dirofilaria immitis, microfilariae (DiMF) in vitro motility assay. It counts as cell-based. The settings on record: Dirofilaria immitis, 72 h, read-out: DiMF minimally effective dose (MEC).

Molecules are shown by their SMILES. Bounds are passed on as bounds.

Take `N#Cc1ccc2c(c1)c1c(n2C(=O)NCc2ccnc(F)c2)CCN(C/C=C/c2cc(Br)cs2)C1` [Example 126, (E)-2-(3-(4-bromothiophen-2-yl)allyl)-8-cyano-N-((2-fluoropyridin-4-yl)methyl)-1,2,3,4-tetrahydro-5H-pyrido[4,3-b]indole-5-carboxamide]: the minimal effective concentration in test [1] and in test [2] was over 100 µM throughout.

As for `Cc1ccc2c3c(n(C(=O)NCc4ccnc(Cl)c4)c2c1)CCN(C/C=C/c1ccc(Cl)c(Cl)c1)C3` [Example 145, (E)-N-((2-chloropyridin-4-yl)methyl)-2-(3-(3,4-dichlorophenyl)allyl)-7-methyl-1,2,3,4-tetrahydro-5H-pyrido[4,3-b]indole-5-carboxamide], the minimal effective concentration in test [1] was found to be 1 µM; in test [2], 33 µM.

`Cc1ccc2c3c(n(C(=O)NCc4ccnc(Cl)c4)c2c1)CCN(C/C=C/c1ccc(Cl)cc1)C3` [Example 146, (E)-2-(3-(4-chlorophenyl)allyl)-N-((2-chloropyridin-4-yl)methyl)-7-methyl-1,2,3,4-tetrahydro-5H-pyrido[4,3-b]indole-5-carboxamide]: the minimal effective concentration in test [1] turned out to be 0.4 µM; in test [2], 10 µM.

Consider `Cc1cccc2c1c1c(n2C(=O)NCc2ccnc(Cl)c2)CCN(C/C=C/c2ccc(Cl)cc2)C1` [Example 147, (E)-2-(3-(4-chlorophenyl)allyl)-N-((2-chloropyridin-4-yl)methyl)-9-methyl-1,2,3,4-tetrahydro-5H-pyrido[4,3-b]indole-5-carboxamide], for which the minimal effective concentration in test [1] worked out at 2.8 µM; in test [2], 10 µM.

For the molecule `Cc1cccc2c1c1c(n2C(=O)NCc2ccnc(Cl)c2)CCN(C/C=C/c2ccc(F)cc2)C1` [Example 149, (E)-N-((2-chloropyridin-4-yl)methyl)-2-(3-(4-fluorophenyl)allyl)-9-methyl-1,2,3,4-tetrahydro-5H-pyrido[4,3-b]indole-5-carboxamide], the minimal effective concentration was determined as 4.4 µM in test [1] and 10 µM in test [2].

Take `Cc1ccc2c3c(n(C(=O)NCc4ccnc(Cl)c4)c2c1)CCN(C/C=C/c1ccc(C(F)(F)F)cc1)C3` [Example 150, (E)-N-((2-chloropyridin-4-yl)methyl)-7-methyl-2-(3-(4-(trifluoromethyl)-phenyl)allyl)-1,2,3,4-tetrahydro-5H-pyrido[4,3-b]indole-5-carboxamide]: the minimal effective concentration in test [1] is 3.3 µM; in test [2] it was 10 µM.

As to `CS(=O)(=O)c1ccc(/C=C/CN2CCc3c(c4ccc(C(F)(F)F)cc4n3C(=O)NCc3ccnc(Cl)c3)C2)cc1` [Example 151, (E)-N-((2-chloropyridin-4-yl)methyl)-2-(3-(4-(methylsulfonyl)phenyl)allyl)-7-(trifluoromethyl)-1,2,3,4-tetrahydro-5H-pyrido[4,3-b]indole-5-carboxamide], the values for the minimal effective concentration in test [1] and in test [2] were over 100 µM and 13.5 µM, respectively.

Take `N#Cc1ccc(/C=C/CN2CCc3c(c4ccc(C(F)(F)F)cc4n3C(=O)NCc3ccnc(Cl)c3)C2)cc1F` [Example 153, (E)-N-((2-chloropyridin-4-yl)methyl)-2-(3-(4-cyano-3-fluorophenyl)allyl)-7-(trifluoromethyl)-1,2,3,4-tetrahydro-5H-pyrido[4,3-b]indole-5-carboxamide]: the values for the minimal effective concentration in test [1] and in test [2] were 1.3 µM and 7.6 µM, respectively.

On to `O=C(NCc1ccnc(Cl)c1)n1c2c(c3c(C(F)(F)F)cccc31)CN(C/C=C/c1ccc(Cl)cc1)CC2` [Example 157, (E)-2-(3-(4-chlorophenyl)allyl)-N-((2-chloropyridin-4-yl)methyl)-9-(trifluoromethyl)-1,2,3,4-tetrahydro-5H-pyrido[4,3-b]indole-5-carboxamide], for which the minimal effective concentration was found to be 3.8 µM in test [1] and 11.9 µM in test [2].
